This note sets out measurements from publication PMC8591808 (Molecular Brain, 2021).

For this test, the target named is T1, Cav3.2 T-type calcium channel (Homo sapiens, UniProt O95180).
T1 construct: gene CACNA1H
The test is described as follows: whole-cell patch clamp, tsA-201 cells transiently expressing Cav3.[…]; partial block (plateau about […]). It counts as cell-based. For orientation: The patch-clamp technique gives a direct electrical read-out from membranes.

The structures appear in SMILES notation.

T1 sequence (O95180 whole entry): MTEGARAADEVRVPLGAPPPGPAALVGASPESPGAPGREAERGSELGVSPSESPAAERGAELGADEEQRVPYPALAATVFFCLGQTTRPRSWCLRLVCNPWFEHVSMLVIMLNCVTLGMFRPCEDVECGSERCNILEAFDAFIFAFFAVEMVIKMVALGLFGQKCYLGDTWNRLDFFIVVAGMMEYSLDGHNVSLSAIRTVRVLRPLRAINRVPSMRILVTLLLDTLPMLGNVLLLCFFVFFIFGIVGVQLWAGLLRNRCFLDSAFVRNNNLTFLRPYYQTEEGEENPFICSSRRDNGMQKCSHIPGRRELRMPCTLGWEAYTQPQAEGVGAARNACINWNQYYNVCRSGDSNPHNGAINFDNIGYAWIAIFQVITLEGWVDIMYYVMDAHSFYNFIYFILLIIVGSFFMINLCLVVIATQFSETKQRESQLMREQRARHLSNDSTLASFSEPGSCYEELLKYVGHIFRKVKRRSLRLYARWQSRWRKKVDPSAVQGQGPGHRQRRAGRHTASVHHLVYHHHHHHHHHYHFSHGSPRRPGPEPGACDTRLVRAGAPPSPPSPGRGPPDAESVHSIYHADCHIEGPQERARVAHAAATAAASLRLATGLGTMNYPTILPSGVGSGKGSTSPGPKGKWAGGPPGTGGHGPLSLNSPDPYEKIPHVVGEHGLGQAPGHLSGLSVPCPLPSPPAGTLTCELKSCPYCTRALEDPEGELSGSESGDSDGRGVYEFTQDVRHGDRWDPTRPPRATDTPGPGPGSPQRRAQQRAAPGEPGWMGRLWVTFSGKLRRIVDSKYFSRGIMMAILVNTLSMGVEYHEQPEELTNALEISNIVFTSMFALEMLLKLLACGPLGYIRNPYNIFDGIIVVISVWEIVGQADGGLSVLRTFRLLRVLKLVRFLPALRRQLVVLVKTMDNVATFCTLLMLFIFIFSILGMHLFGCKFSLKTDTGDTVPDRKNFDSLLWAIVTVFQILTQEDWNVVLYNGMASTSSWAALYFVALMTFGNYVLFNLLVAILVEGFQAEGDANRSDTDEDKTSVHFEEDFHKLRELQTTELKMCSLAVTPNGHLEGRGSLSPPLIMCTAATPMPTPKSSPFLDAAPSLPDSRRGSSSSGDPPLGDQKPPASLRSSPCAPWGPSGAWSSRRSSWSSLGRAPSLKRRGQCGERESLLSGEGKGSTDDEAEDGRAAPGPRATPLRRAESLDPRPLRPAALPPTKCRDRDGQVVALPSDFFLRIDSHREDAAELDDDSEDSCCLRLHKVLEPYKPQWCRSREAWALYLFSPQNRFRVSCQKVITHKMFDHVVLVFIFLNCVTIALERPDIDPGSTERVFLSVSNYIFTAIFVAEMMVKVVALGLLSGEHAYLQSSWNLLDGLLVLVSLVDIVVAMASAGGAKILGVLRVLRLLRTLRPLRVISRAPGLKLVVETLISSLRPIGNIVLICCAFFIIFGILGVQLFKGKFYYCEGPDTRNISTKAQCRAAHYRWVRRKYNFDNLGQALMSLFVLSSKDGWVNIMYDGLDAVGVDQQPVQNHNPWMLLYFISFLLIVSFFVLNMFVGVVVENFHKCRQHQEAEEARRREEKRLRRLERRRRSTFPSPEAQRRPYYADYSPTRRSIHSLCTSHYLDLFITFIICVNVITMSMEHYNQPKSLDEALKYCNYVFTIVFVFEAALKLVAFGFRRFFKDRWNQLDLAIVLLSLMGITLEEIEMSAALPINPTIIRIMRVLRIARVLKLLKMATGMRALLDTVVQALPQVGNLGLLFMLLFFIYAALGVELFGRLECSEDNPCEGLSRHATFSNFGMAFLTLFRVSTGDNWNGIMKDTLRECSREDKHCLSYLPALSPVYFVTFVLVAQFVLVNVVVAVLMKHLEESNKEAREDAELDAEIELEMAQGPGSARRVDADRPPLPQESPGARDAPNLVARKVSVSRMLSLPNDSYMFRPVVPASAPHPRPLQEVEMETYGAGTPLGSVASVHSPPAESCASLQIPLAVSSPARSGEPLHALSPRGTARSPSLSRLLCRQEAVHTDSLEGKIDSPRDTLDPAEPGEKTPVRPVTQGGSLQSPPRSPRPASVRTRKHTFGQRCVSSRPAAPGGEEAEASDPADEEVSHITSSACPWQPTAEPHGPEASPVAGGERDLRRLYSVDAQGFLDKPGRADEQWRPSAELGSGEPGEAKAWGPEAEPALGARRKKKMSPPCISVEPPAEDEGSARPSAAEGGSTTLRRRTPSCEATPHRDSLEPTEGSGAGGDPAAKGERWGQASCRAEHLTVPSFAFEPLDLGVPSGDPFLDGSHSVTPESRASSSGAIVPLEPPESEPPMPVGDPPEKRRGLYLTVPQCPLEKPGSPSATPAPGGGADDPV

In the case of `CC(C)=CCC[C@](C)(O)[C@@H]1CC=C(C)CC1` [alpha-bisabolol], the IC50 (commonly the concentration that gives 50% inhibition) was determined as 4.5 ± 1.1 µM.

For the compound `C=C1C2CCC(C2)C1(C)C` (centres unmarked) [camphene], the IC50 is 7.7 ± 1.8 µM.
